Experimental findings from US4421912A, “Cephalosporin derivatives” (Takeda Chemical Industries, Ltd., priority 1973, dated 1983) are described below.

Test in all cases: Antibacterial spectra, agar dilution method
Common to all, as to type: cell-based
(In general: In agar dilution the substance is mixed into plates at graded concentrations.)

In one assay the test system is E. coli 0-111.
From the text: (§1) (mcg/ml., agar dilution method)
as §1
(§2) (mcg/ml, agar dilution method)
(§3) (mcg./ml., agar dilution method)

In a further assay the test system is E. coli NIHJ JC-2. The settings on record: Escherichia coli.
From the text: as §1, §1, §2, §3

For the next assay, the system named is S. aureus 1840.
From the text: as §1, §1, §2, §3

Another assay deals with S. aureus 209P. As to conditions: for MIC: Staphylococcus aureus, 209P.
From the text: as §1, §1, §2, §3

In another assay the test system is K. pneumoniae DT. As to conditions: Klebsiella pneumoniae.
Another assay relates to P. morganii Eb53. As to conditions: Morganella morganii.
From the text: as §2, §3

A further assay concerns E. coli T-7. As to conditions: Escherichia coli. The source says:
(§4) |(mcg./ml., agar dilution method)

The subject of the next assay is P. vulgaris IFO 3988. As to conditions: Proteus vulgaris.
From the text: as §4

Setting [1] is: Escherichia coli, 0111, E. coli 0-111, Table 11.
[2] abbreviates: NIHJJC2, read-out: Antibacterial spectra, E. coli NIHJ JC-2, Table 11.
Where [3] appears, read: Staphylococcus aureus, 1840, read-out: Antibacterial spectra, S. aureus 1840, Table 11.
Setting [4] is: read-out: Antibacterial spectra, S. aureus 209P, Table 11.
The mark [5] stands for this setting: P. morganii Eb53, agar dilution method, Table 11, read-out: Antibacterial spectra.
Where [6] appears, read: NIHJJC2, E. coli NIHJ JC-2, Table 11, read-out: Antibacterial spectra.
[7] abbreviates: T7, read-out: Antibacterial spectra.
[8] abbreviates: IFO3988, P. vulgaris IFO 3988, agar dilution method, Table 11, read-out: Antibacterial spectra.
Setting [9] is: T7, E. coli T-7, agar dilution method, Table 11, read-out: Antibacterial spectra.
[10] abbreviates: EB53, read-out: Antibacterial spectra.

Values after ≈ are worked out from the molar mass of the structure shown. Like-named read-outs stand apart in the source and are kept apart here.

Turning to `Nc1nc(CC(=O)NC2C(=O)N3C(C(=O)O)=C(CSc4nnc[nH]4)CSC23)cs1` (stereo not shown) [Compound 41], the MIC is 0.78 µg/mL (≈ 1.72 µM) against E. coli 0-111 (setting [1]); 0.78 µg/mL (≈ 1.72 µM) in the assay with E. coli NIHJ JC-2 (setting [2]); 0.78 µg/mL (≈ 1.72 µM) with S. aureus 1840 (setting [3]); 0.39 µg/mL (≈ 0.86 µM) in the assay on S. aureus 209P (setting [4]); 0.2 µg/mL (≈ 0.441 µM) with K. pneumoniae DT (Table 11); 25 µg/mL (≈ 55.1 µM) in the assay with P. morganii Eb53 (setting [5]).
Take `Cc1csc(SCC2=C(C(=O)O)N3C(=O)C(NC(=O)Cc4csc(N)n4)C3SC2)n1` (stereo not shown) [Compound 47]: the MIC with E. coli 0-111 (setting [1]) is 0.78 µg/mL (≈ 1.61 µM); in the assay on E. coli NIHJ JC-2 (setting [6]), 1.56 µg/mL (≈ 3.23 µM); in the assay with S. aureus 1840 (setting [3]), 0.78 µg/mL (≈ 1.61 µM); in the assay with S. aureus 209P (setting [4]), not above 0.2 µg/mL; in the assay with E. coli T-7 (setting [7]), 12.5 µg/mL (≈ 25.8 µM); with P. vulgaris IFO 3988 (setting [8]), 0.39 µg/mL (≈ 0.806 µM). In addition, the MIC in the assay on K. pneumoniae DT (Table 11) stood at 0.39 µg/mL (≈ 0.806 µM).
For `Cn1ccnc1SCC1=C(C(=O)O)N2C(=O)C(NC(=O)Cc3csc(N)n3)C2SC1` (stereo not shown) [Compound 44], the MIC against E. coli 0-111 (setting [1]) stood at 0.39 µg/mL (≈ 0.836 µM); with E. coli NIHJ JC-2 (setting [2]), 0.78 µg/mL (≈ 1.67 µM); with S. aureus 1840 (setting [3]), 1.56 µg/mL (≈ 3.34 µM); in the assay on S. aureus 209P (setting [4]), 0.39 µg/mL (≈ 0.836 µM); with E. coli T-7 (setting [7]), 6.25 µg/mL (≈ 13.4 µM); with P. vulgaris IFO 3988 (setting [8]) it was 0.39 µg/mL (≈ 0.836 µM). Also, the MIC against K. pneumoniae DT (Table 11) turned out to be 0.39 µg/mL (≈ 0.836 µM).
Take `CC(=O)OCC1=C(C(=O)[O-])N2C(=O)C(NC(=O)Cc3csc(=S)[nH]3)[C@H]2SC1.[Na+]` (stereo partly shown) [Example 21, sodium 7-[2-(2-thioxo-4-thiazolin-4-yl)-acetamido]-3-acetoxymethyl-3-cephem-4-carboxylate]: the Antibacterial spectra in the assay with S. aureus 1840 (S. aureus 1840, tables in the Examples) is 1.56 µg/mL; with S. aureus 209P (S. aureus 209P, tables in the Examples), less than 0.78 µg/mL.
For `Cn1c(N)nnc1SCC1=C(C(=O)O)N2C(=O)C(NC(=O)Cc3csc(N)n3)C2SC1` (stereo not shown) [Compound 31], the MIC in the assay with E. coli 0-111 (setting [1]) was not above 0.1 µg/mL; in the assay on E. coli NIHJ JC-2 (setting [2]) it was 0.2 µg/mL (≈ 0.414 µM); in the assay with S. aureus 1840 (setting [3]), 1.56 µg/mL (≈ 3.23 µM); in the assay on S. aureus 209P (setting [4]), 0.78 µg/mL (≈ 1.62 µM); in the assay with E. coli T-7 (setting [9]), 3.13 µg/mL (≈ 6.49 µM); in the assay with P. vulgaris IFO 3988 (setting [8]), 0.2 µg/mL (≈ 0.414 µM). Also, the MIC against K. pneumoniae DT (Table 11) was not above 0.1 µg/mL; in the assay on P. morganii Eb53 (setting [10]), 1.56 µg/mL (≈ 3.23 µM).
Consider `CN(C)C(=O)Cc1nnc(SCC2=C(C(=O)[O-])N3C(=O)C(NC(=O)Cc4csc(N)n4)[C@H]3SC2)s1.[Na+]` (stereo partly shown) [Compound 8, sodium 7-[2-(2-aminothiazol-4-yl)acetamido]-3-[2-(N,N-dimethylcarbamoylmethyl)-1,3,4-thiadiazol-5-yl]thiomethyl-3-cephem-4-carboxylate], for which the MIC with E. coli 0-111 (setting [1]) is not above 0.2 µg/mL; with E. coli NIHJ JC-2 (setting [2]) it was 0.78 µg/mL; in the assay on S. aureus 1840 (setting [3]), 0.78 µg/mL; in the assay with S. aureus 209P (setting [4]) it was 0.39 µg/mL; in the assay with E. coli T-7 (setting [7]), 12.5 µg/mL; with P. vulgaris IFO 3988 (IFO3988, read-out: Antibacterial spectra), 0.39 µg/mL. In addition, the results for the MIC with K. pneumoniae DT (Table 11) and in the assay on P. morganii Eb53 (setting [10]) were not above 0.2 µg/mL and less than 0.2 µg/mL, respectively.
In the case of `CN(C)CCn1nnnc1SCC1=C(C(=O)O)N2C(=O)C(NC(=O)Cc3csc(N)n3)C2SC1` (stereo not shown) [Compound 28], the MIC against E. coli 0-111 (setting [1]) was not above 0.2 µg/mL; with E. coli NIHJ JC-2 (setting [2]), 0.39 µg/mL (≈ 0.742 µM); with S. aureus 1840 (setting [3]), 1.56 µg/mL (≈ 2.97 µM); in the assay on S. aureus 209P (setting [4]), 0.39 µg/mL (≈ 0.742 µM); in the assay on E. coli T-7 (setting [9]), 3.13 µg/mL (≈ 5.95 µM); with P. vulgaris IFO 3988 (setting [8]), 0.78 µg/mL (≈ 1.48 µM). The MIC against K. pneumoniae DT (Table 11) and in the assay with P. morganii Eb53 (setting [10]) was not above 0.2 µg/mL in each case.
For the molecule `Cn1nnnc1SCC1=C(C(=O)O)N2C(=O)C(NC(=O)Cc3csc(=O)[nH]3)[C@H]2SC1` (stereo partly shown) [Example 2, 7-[2-(2-oxo-4-thiazolin-4-yl)acetamido]-3-(1-methyltetrazol-5-yl)thiomethyl-3-cephem-4-carboxylic acid], the MIC was less than 0.78 µg/mL in the assay on E. coli 0-111 (Escherichia coli, 0111, E. coli 0-111, tables in the Examples); less than 0.78 µg/mL in the assay on E. coli NIHJ JC-2 (NIHJJC2, read-out: Antibacterial spectra, E. coli NIHJ JC-2, tables in the Examples); less than 0.78 µg/mL with S. aureus 1840 (Staphylococcus aureus, 1840, read-out: Antibacterial spectra, S. aureus 1840, tables in the Examples); less than 0.78 µg/mL in the assay with S. aureus 209P (read-out: Antibacterial spectra, S. aureus 209P, tables in the Examples); less than 0.78 µg/mL against K. pneumoniae DT (tables in the Examples).
As for `Cc1nnc(SCC2=C(C(=O)O)N3C(=O)C(NC(=O)Cc4csc(=O)[nH]4)[C@H]3SC2)s1` (stereo partly shown) [Compound 55, 7-[2-(2-oxo-4-thiazolin-4-yl)acetamido]-3-(5-methyl-1,3,4-thiadiazol-2-yl)thiomethyl-3-cephem-4-carboxylic acid], the MIC in the assay with E. coli 0-111 (setting [1]) was determined as 0.78 µg/mL (≈ 1.61 µM); with E. coli NIHJ JC-2 (setting [6]), 1.56 µg/mL (≈ 3.21 µM); in the assay with S. aureus 1840 (setting [3]) it was 0.78 µg/mL (≈ 1.61 µM); with S. aureus 209P (setting [4]), 0.2 µg/mL (≈ 0.412 µM); in the assay on K. pneumoniae DT (Table 11) it was 1.56 µg/mL (≈ 3.21 µM).
As for `Cc1cnc(SCC2=C(C(=O)O)N3C(=O)C(NC(=O)Cc4csc(N)n4)C3SC2)nc1N` (stereo not shown) [Compound 32], the MIC against E. coli 0-111 (setting [1]) was 0.78 µg/mL (≈ 1.58 µM); with E. coli NIHJ JC-2 (setting [6]), 1.56 µg/mL (≈ 3.16 µM); in the assay with S. aureus 1840 (setting [3]), 1.56 µg/mL (≈ 3.16 µM); with S. aureus 209P (setting [4]), 0.2 µg/mL (≈ 0.405 µM); in the assay with E. coli T-7 (setting [9]) it was 50 µg/mL (≈ 101 µM); in the assay with P. vulgaris IFO 3988 (setting [8]), 0.78 µg/mL (≈ 1.58 µM). Besides, the MIC against K. pneumoniae DT (Table 11) is 0.39 µg/mL (≈ 0.79 µM); in the assay with P. morganii Eb53 (setting [5]) it was 100 µg/mL (≈ 203 µM).
